Test results reported in patent US20190314345A1, “CALCINEURIN INHIBITOR AND NON-STEROIDAL ANTI-INFLAMMATORY DRUG TO REDUCE RISK OF POST-IMAGING PANCREATITIS” (UNIVERSITY OF PITTSBURGH - OF THE COMMONWEALTH SYSTEM OF …, priority 2016, published 2019).

How the values were obtained:
PEP model in mice [1] = conditions: in vivo model of PEP in mice; earlier work; cited from earlier work
[2] = Dissolution in ready-to-use iohexol formulation; assay type: physicochemical; conditions: FK506 1 μM, CsA 10 μM
PEP model in mice [3] = test: Intra-ductal RC infusion PEP model in mice: histological severity, serum amylase; assay type: in vivo, mouse
Source text: The procedure for retrograde infusion into the CBD and pancreatic duct has been described before^14. Briefly, Swiss Webster mice were anesthetized with isoflurane. A midline incision was made to reveal the abdominal cavity. The duodenum was flipped to reveal its distal side and held in place by ligatures. […] needle was inserted through the anti-mesenteric aspect of the duodenum to cannulate the CBD. A small bull dog clamp was applied to the distal CBD (near the duodenum) to prevent back flow of the infusate into the duodenal lumen and to hold the cannula in place. A larger bull dog clamp was applied to the proximal CBD (near the liver) to prevent infusion into the liver and thus to direct flow to the pancreatic duct. Total volumes of 50-100 μl of iohexol, iopamidol, or normal saline (NS) were infused at 10-20 μl per min for 5 min using a P33 perfusion pump (Harvard Apparatus, Holliston, Mass.). Upon completion of the infusion, the bull dog clamps were released. The exterior abdominal wound was closed using 7 mm wound clips, and a single injection of buprenorphine (0.075 mg/kg) was given immediately after the surgery. Mice recovered on a heating pad for 30 min after the procedure. They were given free access to food and water after the surgery. The pancreas, duodenum, and spleen were fixed at room temperature for 24 hr in 4% paraformaldehyde. Paraffin-embedded sections were stained with hematoxylin an eosin (HE) and graded using a 20× objective over 10 separate fields in a blinded fashion. Pancreas tissue was graded for edema, inflammatory infiltrate, and necrosis as described by Wildi et al.^67. Whole blood samples were centrifuged at 1500×g for 5 min at 4° C. Serum amylase was measured using a Phadebas kit (Amersham Pharmacia, Rochester N.Y.) as previously described^68.

AR42J cells = test: Cell necrosis assay in AR42J cells; assay type: cell-based; conditions: FK506 24 μM, CsA 16 μM
Method: Acinar cells were incubated in a 48-well plate with 50 μg/ml of propidium iodide (PI) for 30 min prior to addition of RC. Fluorescence was measured at 536 nm excitation and 617 nm emission wavelengths over time a time course of up to 6 hr. Fluorescence was measured after cell lysis with 0.5% Triton-X 100 was used to normalize the results relative to total DNA.

PEP model in mice [4] = test: PEP model with intraductal delivery of Cn inhibitors with the radiocontrast; assay type: in vivo, mouse; conditions: CsA 10 μM
Method: PEP was induced as previously described^73. Briefly, 100 μl iohexol (Omnipaque, GE Healthcare, Princeton, N.J.) was infused retrograde into the biliopancreatic duct at a rate of 20 μl/min for 5 min. Mice from the ductal manipulation (DM) group received retrograde infusion of 50 μl normal saline into pancreatic ductal at a lower rate of 10 μl/min for 5 min. Mice were euthanized 24 hr after PEP induction by CO2 inhalation and cervical dislocation. Mice from the sham group received laparotomy only. Blood was collected by retro-orbital bleed 6 h after PEP induction. […] Serum amylase was measured using a Phadebas Kit (Amersham Pharmacia, Rochester, N.Y.) according to the manufacturer's instruction. The pancreas, duodenum, and spleen were placed en bloc in a cassette in order to maintain anatomical orientation (FIG. 18A). The tissues were fixed in 4% paraformaldehyde at room temperature for 24 hr. Paraffin-embedded sections were stained with hematoxylin and eosin (HE). Ten systematically selected fields at 200× magnification were graded in a blinded fashion from the head of the pancreas, which was identified by its juxtaposition to the duodenum. […] Labelled areas within the parenchyma were marked as edema, and their surface area was calculated as a percentage of the total parenchymal area.

NF-κB = test: NF-κB-luciferase activity assay in AR42J cells; assay type: cell-based; conditions: FK506 24 μM, CsA 16 μM; P<0.05
Method: AR42J cells were differentiated towards an acinar phenotype by administering dexamethasone (100 nM) for 48-72 hr^17. AR42J cells were infected with Ad-NF-κB luciferase 16 h prior to stimulation using a previously described method^12. Following a wash with DMEM/F12 medium, acinar cells were evenly distributed in a 48-well plate and incubated for 30 min at 37° C. They were incubated with RC at varying concentrations and times. NF-κB-luciferase was measured using a commercially available luciferase assay (Promega, Madison, Wis.). Briefly, cells were spun at 1,000 rpm for 5 min, washed with PBS, and lysed using reporter lysis 5× buffer (Promega, catalog no. E397A). Samples were vortexed and spun at 12,000×g for 2 min. The supernatant was plated, and luminescence was measured using a Synergy H1 plate reader (BioTek, Winooski, Vt.) and normalized to […].

pancreatic NF-κB = test: Imaging pancreatic NF-κB bioluminescence in vivo; design: species or system mouse; conditions: FK506 treatment
Method: An AAV6-NF-κB-luciferase reporter was constructed, expanded in HEK293 cells, and purified as previously described^18-20, 39. A volume of 100 μl of virus (10^12 GCP/ml) was infused into the pancreaticobiliary duct at a rate of 10 μl/min using the same technique of RC infusion described above and recently published^21, 39. After a 5-week recovery from the surgery, mice underwent PEP induction with or without FK506 treatment. At varying time points after the surgery, ranging from 2 to 36 hr, bioluminescence signals were obtained by first giving a subcutaneous injection of luciferin (150 μg/g body weight) in the scruff of the neck 15 min before the start of imaging. The mice were briefly anesthetized with isoflurane and placed in the supine position in a bioluminescent imaging chamber (IVIS spectrum imager; Perkin Elmer, Waltham, Mass.) for 3-10 min. Average pixel intensity was measured from a pancreatic region of interest (in the upper abdomen). Raw time points from each mouse were normalized to its individual baseline intensity at time zero.

C=CC[C@@H]1/C=C(\C)C[C@H](C)C[C@H](OC)[C@H]2O[C@@](O)(C(=O)C(=O)N3CCCC[C@H]3C(=O)O[C@H](/C(C)=C/[C@@H]3CC[C@@H](O)[C@H](OC)C3)[C@H](C)[C@@H](O)CC1=O)[C@H](C)C[C@@H]2OC [FK506, tacrolimus]
effect of systemic frequent prophylactic dosing on PEP (PEP model in mice [1]): prevented PEP | dissolution in the ready-to-use iohexol formulation [2]: easily dissolved | effect when given after PEP induction (PEP model in mice [3]; FK506 1 mg/kg after the infusion of RC): reduces pancreatic inflammation | serum amylase (PEP model in mice [3]; FK506 1 mg/kg intraperitoneal 1 hr prior and 2.5, 5.5, 12 hr after RC infusion): reduced down to the level of the NS sham condition | histological severity of the pancreas following pancreatitis (PEP model in mice [3]; FK506 1 mg/kg intraperitoneal 1 hr prior and 2.5, 5.5, 12 hr after RC infusion, 24 hr): prevented | effect of FK506 compared with therapeutic indomethacin on RC-induced pancreatitis (PEP model in mice [3]; FK506 1 mg/kg, indomethacin 7 mg/kg IP after RC infusion): as robust | effect on RC (12%)-induced acinar cell necrosis (AR42J cells): prevented | serum amylase elevations seen with PEP (PEP model in mice [4]; 6 hr after infusion, intraductal FK506 1 μM): reduced | reduction of severity of the moderate model of PEP (PEP model in mice [4]; intraductal with radiocontrast, FK506 1 μM, down to sham levels): 61% | reduction of RC-induced NF-κB (NF-κB): 73% | effect on RC-induced pancreatic NF-κB (pancreatic NF-κB): markedly blunted
